Consider 50 compounds from ChEMBL document CHEMBL1641586, “Stereospecific synthesis and structure-activity relationships of unsymmetrical 4,4-diphenylbut-3-enyl derivatives of nipecotic acid as GAT-1 inhibitors” (Bioorg Med Chem Lett, 2011).

As a reminder, the Ki is a dissociation constant, usually derived from enzyme kinetics or from competition with a known ligand. For orientation: IC50 means the concentration needed to halve the response being measured. A higher IC50 goes with weaker potency.

Bounds are passed on as bounds.

For the first test, the target named is Sodium- and chloride-dependent GABA transporter 1 (Homo sapiens, UniProt P30531). Nature of the test: Displacement of [3H]Tiagabine from human recombinant GAT1 expressed in HEK293 cells by equilibrium binding assay. It counts as cell-based.
Chain of Sodium- and chloride-dependent GABA transporter 1 (P30531 whole entry): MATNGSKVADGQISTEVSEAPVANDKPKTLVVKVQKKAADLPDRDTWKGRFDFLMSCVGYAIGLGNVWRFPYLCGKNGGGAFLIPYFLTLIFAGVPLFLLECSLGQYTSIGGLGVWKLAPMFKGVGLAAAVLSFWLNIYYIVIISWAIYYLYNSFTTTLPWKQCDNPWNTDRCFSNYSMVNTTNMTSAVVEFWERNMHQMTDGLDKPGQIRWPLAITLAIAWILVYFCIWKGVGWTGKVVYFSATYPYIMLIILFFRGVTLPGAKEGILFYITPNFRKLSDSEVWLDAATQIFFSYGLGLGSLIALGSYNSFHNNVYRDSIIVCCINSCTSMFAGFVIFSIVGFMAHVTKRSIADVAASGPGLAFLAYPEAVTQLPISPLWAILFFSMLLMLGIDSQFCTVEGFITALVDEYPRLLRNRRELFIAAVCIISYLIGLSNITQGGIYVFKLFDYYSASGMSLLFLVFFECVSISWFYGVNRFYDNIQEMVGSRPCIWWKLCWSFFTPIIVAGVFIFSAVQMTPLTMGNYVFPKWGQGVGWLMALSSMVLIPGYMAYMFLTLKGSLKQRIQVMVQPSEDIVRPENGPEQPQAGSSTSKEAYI
Regarding `O=C(O)[C@@H]1CCCN(CC/C=C(/c2ccccc2)c2ccccc2OC(F)(F)F)C1`, the Ki is 58.9 nM.

Turning to `CCc1ccccc1/C(=C/CCN1CCC[C@@H](C(=O)O)C1)c1ccccc1`, the Ki is 102 nM.

As to `O=C(O)[C@@H]1CCCN(CC/C=C(/c2ccccc2)c2ccccc2Br)C1`, the Ki is 28.8 nM.

Regarding `Cc1ccc(C(=CCCN2CCOC(C(=O)O)C2)c2ccc(C)s2)s1` (configuration not stated), the Ki was over 10000 nM.

Consider `O=C(O)[C@@H]1CCCN(CC/C=C(/c2ccccc2F)c2ccccc2Cl)C1`, for which the Ki is 18.2 nM.

For `O=C(O)[C@@H]1CCCN(CC/C=C(/c2ccccc2F)c2ccccc2Br)C1`, the Ki was 21.9 nM.

For `Cc1ccccc1C(=CCCN1CCC[C@@H](C(=O)O)C1)c1ccccc1C`, the Ki was 41.7 nM.

As for `Cc1ccccc1/C(=C\CCN1CCC[C@@H](C(=O)O)C1)c1ccccc1Cl`, the Ki is 61.7 nM.

Regarding `COc1ccccc1/C(=C\CCN1CCC[C@@H](C(=O)O)C1)c1ccccc1`, the Ki was 56.2 nM.

`O=C(O)[C@@H]1CCCN(CCC=C(c2ccccc2F)c2ccccc2F)C1`: the Ki was 46.8 nM.

Consider `COc1ccccc1/C(=C\CCN1CCC[C@@H](C(=O)O)C1)c1ccccc1F`, for which the inhibitory constant (Ki) is 53.7 nM.

As to `COc1ccccc1/C(=C/CCN1CCC[C@@H](C(=O)O)C1)c1ccccc1`, the Ki was 372 nM.

Regarding `Cc1cc(F)ccc1/C(=C/CCN1CCC[C@@H](C(=O)O)C1)c1ccccc1`, the Ki is 380 nM.

For `Cc1cc(F)ccc1/C(=C\CCN1CCC[C@@H](C(=O)O)C1)c1ccccc1F`, the Ki is 19.1 nM.

Turning to `CC(=O)[C@@H]1CC[C@H]2CC[C@@H]1N2CCC=C(c1ccccc1)c1ccccc1`, the Ki was 2750 nM.

In the case of `O=C(O)[C@@H]1CCCN(CC/C=C(\c2ccccc2)c2ccccc2C(F)(F)F)C1`, the Ki is 1910 nM.

In the case of `Cc1ccc(C(=CCCN2C[C@@H]3[C@H](C2)[C@@H]3C(=O)O)c2ccc(C)s2)s1`, the Ki was over 10000 nM.

As for `O=C(O)[C@@H]1CCCN(CC/C=C(/c2ccccc2)c2ccccc2C(F)(F)F)C1`, the Ki is 93.3 nM.

`Cc1ccccc1/C(=C/CCN1CCC[C@@H](C(=O)O)C1)c1ccccc1F`: the Ki was 72.4 nM.

For the compound `COc1ccccc1/C(=C/CCN1CCC[C@@H](C(=O)O)C1)c1ccccc1C`, the Ki was 70.8 nM.

In the case of `Cc1ccccc1/C(=C/CCN1CCC[C@@H](C(=O)O)C1)c1ccccc1`, the Ki is 93.3 nM.

With `O=C(O)[C@@H]1CCCN(CC/C=C(\c2ccccc2F)c2ccccc2Cl)C1`, the Ki was 158 nM.

On to `Cc1ccc(C(=CCCN2CC[C@@H]3[C@H](C2)[C@@H]3C(=O)O)c2ccc(C)s2)s1`, for which the Ki was over 10000 nM.

Consider `O=C(O)[C@@H]1CCCN(CC/C=C(/c2ccccc2F)c2ccccc2OC(F)(F)F)C1`, for which the Ki is 52.5 nM.

For `O=C(O)[C@@H]1CCCN(CC/C=C(\c2ccccc2)c2ccccc2Br)C1`, the Ki was 200 nM.

On to `O=C(O)[C@@H]1CCCN(CC/C=C(\c2ccccc2)c2c(F)cccc2F)C1`, for which the Ki was 692 nM.

Regarding `Cc1cccc(C)c1/C(=C\CCN1CCC[C@@H](C(=O)O)C1)c1ccccc1`, the Ki is 77.6 nM.

As to `O=C(O)[C@@H]1CCCN(CC/C=C(\c2ccccc2F)c2ccccc2C(F)(F)F)C1`, the Ki is 355 nM.

Take `Cc1ccccc1/C(=C\CCN1CCC[C@@H](C(=O)O)C1)c1ccccc1C(F)(F)F`: the Ki is 380 nM.

For the compound `Cc1cc(F)ccc1/C(=C\CCN1CCC[C@@H](C(=O)O)C1)c1ccccc1`, the Ki was 33.9 nM.

For `Cc1cc(F)ccc1/C(=C\CCN1CCC[C@@H](C(=O)O)C1)c1ccccc1C(F)(F)F`, the Ki is 38.9 nM.

On to `O=C(O)[C@@H]1CCCN(CC/C=C(\c2ccccc2)c2ccccc2-c2ccccc2)C1`, for which the Ki was 676 nM.

With `O=C(O)[C@@H]1CCCN(CC/C=C(/c2ccccc2)c2ccccc2F)C1`, the Ki was 69.2 nM.

On to `CCc1ccccc1/C(=C/CCN1CCC[C@@H](C(=O)O)C1)c1ccccc1F`, for which the Ki is 89.1 nM.

`Cc1ccc(C(=CCCN(C)[C@H]2CCC[C@@H]2C(=O)O)c2ccc(C)s2)s1`: the Ki is over 10000 nM.

With `O=C(O)[C@@H]1CCCN(CC/C=C(/c2ccccc2)c2c(F)cccc2F)C1`, the Ki was 331 nM.

`Cc1ccc(C(=CCCN2C[C@@H]3[C@H](C2)[C@H]3C(=O)O)c2ccc(C)s2)s1`: the Ki was over 10000 nM.

On to `O=C(O)[C@@H]1CCCN(CC/C=C(\c2ccccc2)c2ccccc2F)C1`, for which the Ki was 372 nM.

Take `Cc1ccc(C(=CCCN2CC[C@H]3[C@@H](C2)[C@@H]3C(=O)O)c2ccc(C)s2)s1`: the Ki is over 10000 nM.

Turning to `O=C(O)C1(F)CCCN(CCC=C(c2ccccc2)c2ccccc2)C1` (configuration not stated), the Ki was 832 nM.

As to `O=C(O)[C@@H]1CCCN(CC/C=C(/c2ccccc2)c2ccccc2-c2ccccc2)C1`, the Ki is 1070 nM.

In the case of `Cc1ccccc1/C(=C\CCN1CCC[C@@H](C(=O)O)C1)c1ccccc1`, the Ki is 20.4 nM.

Regarding `Cc1ccc(C(=CCCN2CCCC(F)(C(=O)O)C2)c2ccc(C)s2)s1` (configuration not stated), the Ki is 138 nM.

As to `CCc1ccccc1/C(=C\CCN1CCC[C@@H](C(=O)O)C1)c1ccccc1`, the Ki is 29.5 nM.

In the case of `Cc1ccccc1/C(=C\CCN1CCC[C@@H](C(=O)O)C1)c1ccccc1F`, the Ki is 14.8 nM.

On to `O=C(O)[C@@H]1CCCN(CC/C=C(/c2ccccc2)c2ccccc2Cl)C1`, for which the Ki was 40.7 nM.

Turning to `O=C(O)[C@@H]1CCCN(CC/C=C(\c2ccccc2)c2ccccc2OC(F)(F)F)C1`, the Ki is 646 nM.

`O=C(O)[C@@H]1CCCN(CC/C=C(\c2ccccc2)c2ccccc2Cl)C1`: the Ki was 166 nM.

For the compound `CCc1ccccc1/C(=C\CCN1CCC[C@@H](C(=O)O)C1)c1ccccc1F`, the Ki was 38 nM.

On to `Cc1ccc(C(=CCCN(C)[C@H]2CCCC[C@@H]2C(=O)O)c2ccc(C)s2)s1`, for which the Ki was over 10000 nM.

The next test has as its target T1, Cytochrome P450 1A2 (Homo sapiens, UniProt P05177).
T1 sequence (P05177 whole entry): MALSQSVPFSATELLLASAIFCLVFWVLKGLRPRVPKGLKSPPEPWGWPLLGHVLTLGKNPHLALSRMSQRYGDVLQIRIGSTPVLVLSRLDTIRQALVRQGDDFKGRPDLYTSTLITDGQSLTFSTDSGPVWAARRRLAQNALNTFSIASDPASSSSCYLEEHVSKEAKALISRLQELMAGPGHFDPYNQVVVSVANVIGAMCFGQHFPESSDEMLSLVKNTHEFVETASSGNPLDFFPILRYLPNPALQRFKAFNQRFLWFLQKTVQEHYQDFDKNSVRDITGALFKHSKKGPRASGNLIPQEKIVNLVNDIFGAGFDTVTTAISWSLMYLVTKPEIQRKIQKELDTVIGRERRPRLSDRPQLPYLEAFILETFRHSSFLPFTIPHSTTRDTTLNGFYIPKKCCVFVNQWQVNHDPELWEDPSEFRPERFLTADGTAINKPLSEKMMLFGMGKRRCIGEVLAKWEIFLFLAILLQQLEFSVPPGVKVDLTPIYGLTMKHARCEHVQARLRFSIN
Nature of the test: Inhibition of CYP1A2. The class given is ADME.
For `Cc1ccccc1/C(=C\CCN1CCC[C@@H](C(=O)O)C1)c1ccccc1F`, the IC50 was over 10000 nM.

For another test, the target named is Cytochrome P450 2C9 (Homo sapiens, UniProt P11712). As to the kind of experiment: Inhibition of CYP2C9. The class given is ADME.
Chain of Cytochrome P450 2C9 (P11712 whole entry): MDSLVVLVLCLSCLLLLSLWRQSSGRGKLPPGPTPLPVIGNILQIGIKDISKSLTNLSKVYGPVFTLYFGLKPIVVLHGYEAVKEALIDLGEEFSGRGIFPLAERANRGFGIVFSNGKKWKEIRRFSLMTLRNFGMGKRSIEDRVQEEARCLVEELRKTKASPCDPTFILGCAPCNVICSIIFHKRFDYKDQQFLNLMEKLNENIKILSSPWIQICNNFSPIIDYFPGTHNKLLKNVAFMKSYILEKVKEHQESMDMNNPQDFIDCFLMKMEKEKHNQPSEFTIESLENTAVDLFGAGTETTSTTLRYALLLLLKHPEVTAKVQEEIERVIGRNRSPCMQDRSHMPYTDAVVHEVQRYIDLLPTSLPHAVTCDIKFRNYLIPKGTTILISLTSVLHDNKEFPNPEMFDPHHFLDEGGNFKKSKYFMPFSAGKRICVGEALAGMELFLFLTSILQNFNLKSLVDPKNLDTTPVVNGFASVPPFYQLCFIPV
With `Cc1ccccc1/C(=C\CCN1CCC[C@@H](C(=O)O)C1)c1ccccc1F`, the IC50 is over 10000 nM.

For a further test, the target named is Cytochrome P450 2C19 (Homo sapiens, UniProt P33261). As to the kind of experiment: Inhibition of CYP2C19. It counts as ADME.
Chain of Cytochrome P450 2C19 (P33261 whole entry): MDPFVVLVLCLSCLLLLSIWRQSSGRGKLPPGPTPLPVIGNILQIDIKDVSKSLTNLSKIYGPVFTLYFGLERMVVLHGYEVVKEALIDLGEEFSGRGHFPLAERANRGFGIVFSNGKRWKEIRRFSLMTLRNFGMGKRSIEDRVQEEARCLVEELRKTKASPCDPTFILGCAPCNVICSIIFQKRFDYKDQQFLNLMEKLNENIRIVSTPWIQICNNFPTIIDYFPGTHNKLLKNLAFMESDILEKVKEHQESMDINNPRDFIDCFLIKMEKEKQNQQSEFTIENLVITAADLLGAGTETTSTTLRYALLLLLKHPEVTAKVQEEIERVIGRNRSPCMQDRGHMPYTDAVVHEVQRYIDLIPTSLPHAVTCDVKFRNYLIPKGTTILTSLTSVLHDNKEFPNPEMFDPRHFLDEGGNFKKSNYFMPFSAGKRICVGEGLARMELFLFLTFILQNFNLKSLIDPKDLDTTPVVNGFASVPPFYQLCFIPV
`Cc1ccccc1/C(=C\CCN1CCC[C@@H](C(=O)O)C1)c1ccccc1F` returned an IC50 of over 10000 nM.

In a further test the target is Cytochrome P450 3A4 (Homo sapiens, UniProt P08684). Nature of the test: Inhibition of CYP3A4. The class given is ADME.
Chain of Cytochrome P450 3A4 (P08684 whole entry): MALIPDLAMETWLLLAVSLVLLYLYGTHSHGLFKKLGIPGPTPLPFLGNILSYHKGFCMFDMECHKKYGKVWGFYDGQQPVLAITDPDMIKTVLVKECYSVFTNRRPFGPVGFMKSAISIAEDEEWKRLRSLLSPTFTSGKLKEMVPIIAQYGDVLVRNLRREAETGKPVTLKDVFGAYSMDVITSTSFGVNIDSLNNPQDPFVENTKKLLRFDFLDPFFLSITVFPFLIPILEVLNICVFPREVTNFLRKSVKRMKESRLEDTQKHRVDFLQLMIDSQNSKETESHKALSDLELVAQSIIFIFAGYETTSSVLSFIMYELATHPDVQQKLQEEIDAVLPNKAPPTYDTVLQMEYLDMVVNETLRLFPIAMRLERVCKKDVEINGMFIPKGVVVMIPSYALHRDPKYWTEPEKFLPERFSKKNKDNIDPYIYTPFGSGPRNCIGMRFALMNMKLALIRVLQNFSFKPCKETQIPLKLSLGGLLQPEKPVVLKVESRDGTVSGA
With `Cc1ccccc1/C(=C\CCN1CCC[C@@H](C(=O)O)C1)c1ccccc1F`, the IC50 is over 10000 nM.

In a further test the target is T2, Sodium- and chloride-dependent betaine transporter (Homo sapiens, UniProt P48065).
T2 sequence (P48065 whole entry): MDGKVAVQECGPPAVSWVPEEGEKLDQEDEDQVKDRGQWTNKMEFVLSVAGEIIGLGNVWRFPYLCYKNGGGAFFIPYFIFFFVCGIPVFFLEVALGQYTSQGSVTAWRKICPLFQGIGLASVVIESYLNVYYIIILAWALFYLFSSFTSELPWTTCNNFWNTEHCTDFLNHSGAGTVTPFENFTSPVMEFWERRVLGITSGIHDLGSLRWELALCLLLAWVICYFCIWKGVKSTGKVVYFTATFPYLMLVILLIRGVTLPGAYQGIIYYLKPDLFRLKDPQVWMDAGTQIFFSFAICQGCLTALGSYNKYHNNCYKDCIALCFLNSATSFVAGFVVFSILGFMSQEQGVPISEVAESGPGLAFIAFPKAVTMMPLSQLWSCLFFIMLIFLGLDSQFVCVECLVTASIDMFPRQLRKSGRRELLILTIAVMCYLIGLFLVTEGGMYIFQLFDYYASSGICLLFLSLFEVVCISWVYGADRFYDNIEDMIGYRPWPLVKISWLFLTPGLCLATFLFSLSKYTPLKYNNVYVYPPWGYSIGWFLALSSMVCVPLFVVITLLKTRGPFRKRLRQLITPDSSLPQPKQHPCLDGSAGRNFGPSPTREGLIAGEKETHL
Nature of the test: Inhibition of BGT1.
`Cc1ccccc1/C(=C\CCN1CCC[C@@H](C(=O)O)C1)c1ccccc1F` showed an IC50 of over 100000 nM.

The next test addresses T3, Sodium- and chloride-dependent GABA transporter 2 (Homo sapiens, UniProt Q9NSD5).
T3 sequence (Q9NSD5 whole entry): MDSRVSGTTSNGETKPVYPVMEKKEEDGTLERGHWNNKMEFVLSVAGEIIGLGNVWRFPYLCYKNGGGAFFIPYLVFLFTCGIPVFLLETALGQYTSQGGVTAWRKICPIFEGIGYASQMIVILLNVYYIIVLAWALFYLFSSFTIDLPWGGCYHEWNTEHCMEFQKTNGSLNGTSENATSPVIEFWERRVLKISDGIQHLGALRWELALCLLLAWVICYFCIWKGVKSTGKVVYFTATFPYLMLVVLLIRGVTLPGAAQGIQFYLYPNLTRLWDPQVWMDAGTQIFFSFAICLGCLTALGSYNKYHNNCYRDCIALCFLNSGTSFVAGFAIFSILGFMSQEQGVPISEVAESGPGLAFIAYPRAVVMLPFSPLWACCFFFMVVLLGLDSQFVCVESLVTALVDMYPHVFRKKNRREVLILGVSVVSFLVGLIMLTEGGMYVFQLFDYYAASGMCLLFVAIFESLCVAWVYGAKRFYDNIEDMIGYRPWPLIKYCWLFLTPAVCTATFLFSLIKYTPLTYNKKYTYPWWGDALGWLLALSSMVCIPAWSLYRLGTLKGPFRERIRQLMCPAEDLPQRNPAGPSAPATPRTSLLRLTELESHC
As to the kind of experiment: Inhibition of GAT2.
In turn, `Cc1ccccc1/C(=C\CCN1CCC[C@@H](C(=O)O)C1)c1ccccc1F` had an IC50 of over 100000 nM.

A further test deals with T4, Sodium- and chloride-dependent GABA transporter 3 (Homo sapiens, UniProt P48066).
T4 sequence (P48066 whole entry): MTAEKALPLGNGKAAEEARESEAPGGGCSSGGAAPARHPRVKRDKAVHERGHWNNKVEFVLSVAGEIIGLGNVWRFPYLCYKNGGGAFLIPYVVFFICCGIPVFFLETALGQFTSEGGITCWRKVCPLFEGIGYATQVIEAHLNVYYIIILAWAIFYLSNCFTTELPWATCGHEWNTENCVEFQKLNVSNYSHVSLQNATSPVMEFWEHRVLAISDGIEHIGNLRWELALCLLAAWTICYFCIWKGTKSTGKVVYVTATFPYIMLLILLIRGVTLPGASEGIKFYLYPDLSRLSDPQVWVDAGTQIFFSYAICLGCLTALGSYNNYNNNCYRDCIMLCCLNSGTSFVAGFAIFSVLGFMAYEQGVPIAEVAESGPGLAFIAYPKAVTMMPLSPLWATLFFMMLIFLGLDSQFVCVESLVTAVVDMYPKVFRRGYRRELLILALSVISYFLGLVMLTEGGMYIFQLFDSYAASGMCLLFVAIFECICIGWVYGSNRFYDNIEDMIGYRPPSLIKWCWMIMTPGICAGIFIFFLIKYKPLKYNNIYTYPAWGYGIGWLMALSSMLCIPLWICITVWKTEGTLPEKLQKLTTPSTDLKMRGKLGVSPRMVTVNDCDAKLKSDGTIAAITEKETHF
As to the kind of experiment: Inhibition of GAT3.
The compound `Cc1ccccc1/C(=C\CCN1CCC[C@@H](C(=O)O)C1)c1ccccc1F` had an IC50 of over 100000 nM.
